Data published in PubChem BioAssay AID977605 (Broad Institute, 2014).
Calls of active or inactive are those of the source.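 How the source made its calls: active means fitted curve reaches 40% activation below the top valid tested dose, in every test run; inconclusive means test runs disagree on the call; inactive means the rest, including effects opposite to the expected direction.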

Test: E-selectin inducers in HUVECs, dose response, imaging, HUVEC, cherry-picked samples (AID 977605);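 further: signal is the share of imaged cells scored positive for E-selectin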
Details: HUVEC E-selectin immunostaining, at 19.5 µM (top of the series), percent of TNF-alpha response over vehicle
For `Cc1ccc(S(=O)(=O)NNC(=O)c2cccc(O)c2)cc1`, the activation was -0.007% (inactive). In the case of `Cc1ccc(O)c([C@H](CCN(C(C)C)C(C)C)c2ccccc2)c1`, the activation is reported as -0.269% (inactive). With `OC(COC(c1ccccc1)c1ccccc1)CN1CCOCC1` (configuration not stated) the activation was 2% (inactive). In the case of `C[C@@H]1CN([C@H](C)CO)C(=O)c2cc(NC(=O)Cc3ccccc3)ccc2O[C@H]1CN(C)C(=O)NC1CCCCC1`, the activation is reported as 0.096% (inactive). In the case of `Cc1ccc(S(=O)(=O)Nc2ccc3c(c2)C(=O)N([C@H](C)CO)C[C@H](C)[C@H](CN(C)C(=O)Nc2cccc4ccccc24)OCCCC[C@@H](C)O3)cc1`, the activation is reported as 7.64% (inactive). For `COc1ccc(C#Cc2ccc3c(c2)O[C@@H](CN(C)C(=O)Nc2cccc(OC)c2)[C@H](C)CN([C@@H](C)CO)S3(=O)=O)cc1`, the activation was 4.46% (inactive). With `CC(C)NC(=O)N(C)C[C@@H]1Oc2ccc(NS(=O)(=O)c3cccs3)cc2CC(=O)N([C@H](C)CO)C[C@@H]1C` the activation was 1.19% (inactive). In the case of `C[C@H]1CN([C@@H](C)CO)C(=O)c2cc(NS(C)(=O)=O)ccc2O[C@@H]1CN(C)Cc1ccc(Cl)c(Cl)c1`, the activation is reported as -0.025% (inactive). For `C[C@H]1CN([C@@H](C)CO)C(=O)c2cccc(NC(=O)C3CC3)c2O[C@H]1CN(C)Cc1ccccc1`, the activation was 1.36% (inactive). For `Cc1noc(C)c1NC(=O)N(C)C[C@@H]1Oc2ccc(NC(=O)c3ccncc3)cc2C(=O)N([C@H](C)CO)C[C@H]1C`, the activation was -0.047% (inactive). With `C[C@H](CO)N1C[C@H](C)[C@H](CN(C)S(=O)(=O)c2cccs2)Oc2c(NC(=O)Nc3ccccc3)cccc2C1=O` the activation was 1% (inactive). In the case of `CCCC#Cc1ccc2c(c1)O[C@H](CN(C)C(C)=O)[C@H](C)CN([C@@H](C)CO)S2(=O)=O`, the activation is reported as 0.607% (inactive). For `COc1cccc(-c2cccc(-c3nc(C(=O)Nc4ccc(-c5ccccc5)cc4)cc4c3[C@@H](CCO)N(S(=O)C(C)(C)C)C4)c2)c1` (some centres not stated), the activation was 1.45% (inactive). For `COc1ccc(CN(C)C[C@@H]2Oc3ccc(N(C)C)cc3CC(=O)N([C@@H](C)CO)C[C@@H]2C)cc1`, the activation was -0.012% (inactive). With `CCOC(=O)N1CCN=C1SCc1ccc(Cl)c(Cl)c1` the activation was 5.27% (inactive). With `Cc1cc(C)nc(NC(N)=NC(C)c2ccccc2)n1` (configuration not stated) the activation was -0.07% (inactive). In the case of `C[C@H](CO)N1C[C@H](C)[C@@H](CN(C)S(=O)(=O)c2cccs2)Oc2ccc(NS(=O)(=O)c3ccc(Cl)cc3)cc2CC1=O`, the activation is reported as 0.125% (inactive). In the case of `C[C@H]1CN([C@@H](C)CO)C(=O)c2cccc(NS(C)(=O)=O)c2O[C@@H]1CN(C)Cc1ccncc1`, the activation is reported as -0.178% (inactive). For `CCOc1ccc(NC(=O)CNC(=O)c2ccc(OC)cc2)cc1`, the activation was 0.033% (inactive). For `C=C(C)CCC(C)N1CCC(n2nccc2NC(=O)CCOc2ccccc2)CC1` (configuration not stated), the activation was -0.056% (inactive). With `C[C@H](CO)N1C[C@H](C)[C@@H](CN(C)Cc2ccc(C(F)(F)F)cc2)Oc2ccc(N(C)C)cc2CC1=O` the activation was 0.906% (inactive). In the case of `C[C@H]1CN([C@@H](C)CO)C(=O)Cc2cc(NC(=O)Nc3ccccc3)ccc2O[C@H]1CN(C)C`, the activation is reported as 0.067% (inactive). For `C[C@@H]1CN([C@H](C)CO)C(=O)c2cc(NC(=O)Cn3cnnn3)ccc2O[C@H]1CN(C)S(=O)(=O)c1ccccc1`, the activation was 0% (inactive). In the case of `C[C@@H]1CN([C@H](C)CO)C(=O)c2cc(NS(=O)(=O)c3cccs3)ccc2O[C@H]1CN(C)S(C)(=O)=O`, the activation is reported as -0.143% (inactive). For `CCN(CC)CCN(C(=O)Cn1nnc(-c2ccc(C)o2)n1)C(C(=O)NC(C)(C)C)c1cccs1` (configuration not stated), the activation was -0.044% (inactive). For `Cc1ccc(NC(=O)CN2CCOCC2)cc1Cl`, the activation was 0.043% (inactive). With `CC(C)NC(=O)Nc1ccc2c(c1)C(=O)N(C)[C@@H]1CC[C@@H](CC(=O)NCC(F)(F)F)O[C@@H]1CO2` the activation was 0.147% (inactive). For `C[C@@H]1CN([C@@H](C)CO)C(=O)c2cc(NS(=O)(=O)c3cccs3)ccc2O[C@H]1CN(C)C(=O)Nc1ccc2c(c1)OCO2`, the activation was -0.287% (inactive). In the case of `C[C@H]1CN([C@@H](C)CO)C(=O)c2cc(NS(=O)(=O)c3cn(C)cn3)ccc2O[C@@H]1CN(C)Cc1ccncc1`, the activation is reported as -0.214% (inactive). In the case of `C[C@@H]1CN([C@H](C)CO)C(=O)Cc2cc(NC(=O)Cn3cnnn3)ccc2O[C@H]1CN(C)C(=O)Nc1ccc(C(F)(F)F)cc1`, the activation is reported as 0.232% (inactive). In the case of `C[C@H](CO)N1C[C@H](C)[C@H](CN(C)CC2CC2)Oc2c(NC(=O)C3CC3)cccc2C1=O`, the activation is reported as -0.037% (inactive). With `C[C@H](CO)N1C[C@H](C)[C@@H](CN(C)Cc2ccccc2)Oc2c(NC(=O)C3CC3)cccc2C1=O` the activation was -0.084% (inactive). With `Cc1c(N(C)C(=O)COc2ccc3ccccc3c2)c(=O)n(-c2ccccc2)n1C` the activation was -0.279% (inactive). In the case of `Cc1ccc(C(=O)NCC(=O)Nc2ccncc2)cc1C`, the activation is reported as -0.08% (inactive). For `CC(C)NC(=O)N(C)C[C@@H]1Oc2c(NC(=O)c3ccc(-c4nccs4)cc3)cccc2C(=O)N([C@@H](C)CO)C[C@H]1C`, the activation was 1.61% (inactive). For `Cc1noc(C)c1S(=O)(=O)N(C)C[C@@H]1Oc2ccc(NC(=O)Nc3ccc(F)cc3)cc2CC(=O)N([C@@H](C)CO)C[C@@H]1C`, the activation was -0.013% (inactive). For `COc1ccc2sc(-c3ccccc3OC)c(-c3ccc(O)cc3)c2c1`, the activation was -0.095% (inactive). In the case of `C[C@@H]1CN([C@H](C)CO)C(=O)c2cc(N(C)C)ccc2O[C@H]1CN(C)S(=O)(=O)c1cn(C)cn1`, the activation is reported as -0.007% (inactive). In the case of `C[C@H]1CN([C@@H](C)CO)C(=O)c2cccc(NC(=O)Nc3ccc(F)cc3)c2O[C@H]1CN(C)CC1CCCCC1`, the activation is reported as -0.099% (inactive). In the case of `COc1ccc(OC)c(NC(=O)c2csc(Cl)c2OC)c1`, the activation is reported as 2.39% (inactive). With `C[C@@H]1CN([C@H](C)CO)C(=O)c2cc(Br)cnc2O[C@@H]1CN(C)C(=O)C1CC1` the activation was -0.087% (inactive). In the case of `Cc1ccc(S(=O)(=O)Nc2ccc3c(c2)C(=O)N([C@H](C)CO)C[C@@H](C)[C@H](CN(C)Cc2ccc(-c4ccccc4)cc2)O3)cc1`, the activation is reported as -0.157% (inactive). For `CC(=O)Nc1ccc(CNc2nc(NC(C)C)nc3cc(-c4ccccc4)sc23)cc1`, the activation was 1.22% (inactive). In the case of `Cc1ccc(S(=O)(=O)NC(Cc2ccccc2)C(=O)O)cc1C` (configuration not stated), the activation is reported as -0.133% (inactive). With `Cc1nc(N2CCN(c3ccccn3)CC2)c2c(C)c(C(=O)Nc3ccc(F)cc3Cl)sc2n1` the activation was -0.158% (inactive). In the case of `CC(C)NC(=O)N(C)C[C@@H]1Oc2ccc(NC(=O)CCC(F)(F)F)cc2CC(=O)N([C@@H](C)CO)C[C@H]1C`, the activation is reported as 0.007% (inactive). In the case of `Cc1cc(C)cc(NC(=O)Nc2ccc(-n3ccc(C(F)(F)F)n3)cc2)c1`, the activation is reported as 0.075% (inactive). For `C[C@@H]1CN([C@@H](C)CO)C(=O)Cc2cc(NC(=O)Cc3cn(C)c4ccccc34)ccc2O[C@H]1CN(C)Cc1ccc(C(F)(F)F)cc1`, the activation was 1.99% (inactive). With `C[C@@H]1CN([C@@H](C)CO)C(=O)c2cccc(NC(=O)CCCCCC(=O)Nc3ccccc3N)c2O[C@H]1CN(C)S(=O)(=O)c1cn(C)cn1` the activation was 0.292% (inactive). For `COc1ccc(N2C(=O)c3ccccc3C(C)(C)C2=O)cc1`, the activation was -0.152% (inactive). With `Oc1cccc(Oc2ncc(C(F)(F)F)cc2Cl)c1` the activation was -0.09% (inactive). In the case of `C[C@@H]1CN([C@@H](C)CO)C(=O)c2cc(NC(=O)NC3CCCCC3)ccc2O[C@@H]1CN(C)Cc1ccc2c(c1)OCO2`, the activation is reported as -0.021% (inactive). In the case of `CC(C)NC(=O)Nc1ccc2c(c1)CC(=O)N([C@H](C)CO)C[C@H](C)[C@@H](CN(C)Cc1ccc(Oc3ccccc3)cc1)O2`, the activation is reported as -0.055% (inactive). In the case of `CCOC(=O)[C@]12CCCC=C1N(Cc1ccccc1)C(=O)[C@H](CC(=O)NCc1cccc3ccccc13)C2`, the activation is reported as 0.13% (inactive). In the case of `CCCCNC(=O)N1CCN(c2ccccc2OCC)CC1`, the activation is reported as 0.12% (inactive). For `OC(Cc1ccccc1Br)c1ncc(-c2ccc(Cl)cc2)[nH]1` (configuration not stated), the activation was 1.34% (inactive). With `Cc1noc(C)c1S(=O)(=O)Nc1ccc2c(c1)CC(=O)N([C@H](C)CO)C[C@H](C)[C@@H](CN(C)C(=O)Nc1cccc3ccccc13)O2` the activation was -0.095% (inactive). With `CC(C)NC(=O)Nc1ccc2c(c1)C(=O)N([C@@H](C)CO)C[C@H](C)[C@H](CN(C)Cc1ccc(C(F)(F)F)cc1)O2` the activation was 0.054% (inactive). In the case of `O=S(=O)(NCc1cccnc1)c1ccc(Cl)c2ccccc12`, the activation is reported as 0.304% (inactive). With `CC(=O)c1ccc(N(C(=O)CNC(=O)c2ccco2)C(C(=O)NC2CCCC2)c2ccc(C)o2)cc1` (configuration not stated) the activation was -0.024% (inactive). In the case of `CCn1c(CCC(=O)O)nc2cc(S(=O)(=O)N3CCOCC3)ccc21`, the activation is reported as -0.184% (inactive). For `NS(=O)(=O)c1ccc(NC(=O)CCC(=O)N2CCOCC2)cc1`, the activation was 0.021% (inactive). In the case of `CCCN1CCN(C(=O)c2ccc(CS(=O)c3ccc(Cl)cc3)o2)CC1` (configuration not stated), the activation is reported as 0.214% (inactive).

Same assay, conditions: HUVEC E-selectin immunostaining, at 21 µM (top of the series), percent of TNF-alpha response over vehicle
With `CC(C)NC(=O)Nc1ccc2c(c1)CC(=O)N([C@H](C)CO)C[C@H](C)[C@@H](CN(C)Cc1ccc(C(=O)O)cc1)O2` the activation was -0.068% (inactive). In the case of `C[C@H]1CN([C@@H](C)CO)C(=O)c2cccc(NS(=O)(=O)c3cccs3)c2O[C@@H]1CN(C)Cc1ccc(C(=O)Nc2ccccc2N)cc1`, the activation is reported as -0.225% (inactive). With `C[C@@H]1CN([C@H](C)CO)C(=O)c2cc(NC(=O)C3CCCCC3)ccc2O[C@H]1CN(C)C(=O)Nc1ccc2c(c1)OCO2` the activation was 4.77% (inactive). For `C[C@H](CO)N1C[C@H](C)[C@H](CN(C)C)Oc2ccc(NC(=O)Nc3ccccc3)cc2CC1=O`, the activation was -0.138% (inactive). With `C[C@@H]1CN([C@H](C)CO)C(=O)Cc2cc(NC(=O)Cc3cn(C)c4ccccc34)ccc2O[C@@H]1CN(C)Cc1ccc(C(F)(F)F)cc1` the activation was 0.433% (inactive). In the case of `CC(C)NC(=O)N(C)C[C@H]1Oc2ccc(NC(=O)CCC(F)(F)F)cc2CC(=O)N([C@@H](C)CO)C[C@@H]1C`, the activation is reported as -0.117% (inactive). For `CCNC(=O)C[C@@H]1CC[C@@H]2[C@@H](COc3ccc(NC(=O)Nc4cccc(OC)c4)cc3C(=O)N2C)O1`, the activation was 0.153% (inactive). In the case of `CC(C)NC(=O)Nc1ccc2c(c1)C(=O)N([C@@H](C)CO)C[C@@H](C)[C@H](CN(C)Cc1ccc(C(F)(F)F)cc1)O2`, the activation is reported as 0.029% (inactive). For `C[C@H]1CN([C@@H](C)CO)C(=O)c2cc(NC(=O)Nc3ccc(C(F)(F)F)cc3)ccc2O[C@@H]1CN(C)S(=O)(=O)c1ccccc1`, the activation was 0.012% (inactive).
